According to US20150240204A1, “METHOD FOR POLYCLONAL STIMULATION OF T CELLS BY MOBILE NANOMATRICES” (MILTENYI BIOTEC GMBH, priority 2012, published 2015):

Tests used:
Assay type in all cases: cell-based, human
[1] = test system: CD8+ T cell subsets and PBMC from melanoma patients; test: Fold expansion of MART-1 TCR transduced cultures; settings: IL2, day 13-15 after stimulation
Text: CD8^+ T cell subsets from freshly isolated PBMC from melanoma patients were isolated and the stimulated with coated CD3 plus soluble CD28 (CD3+CD28 in the graph) or with CD3/CD28/CD2 coated MACSiBeads (MACSiBeads in the graph) or with CD3/CD28 Nanomatrix in the presence of IL2. After 2 days of stimulation cells have been transduced to express MART-1 TCR. In the graph is reported the fold expansion of each culture at day 13-15 after stimulation.
One important application for activating and expanding T cells and in particular purified cell subsets is their genetic manipulation, e.g. to introduce a certain antigen receptor with specificity for tumor antigens. We have used nanomatrices to activate purified naïve (TN, CD62L+CD45RA+), central memory (TCM, CD62L+CD45RA−) and effector (TEM, CD62L−CD45RA−) T cells and transduced them using a retroviral vector expressing a TCR specific for MART-1, a tumor antigen. To test the relative frequency of transgene expression in these T cell subsets we performed MHC-peptide Class I tetramer staining. All T cell subsets are efficiently transduced (>50%) independent on the stimulatory conditions we tested (FIG. 7). We also compared the in vitro expansion of the transduced T cells. As shown in FIG. 8 after 10 days we observed no differences with regard to expansion of the three subsets under all conditions. […]

naive T cells = test: Expansion of naive T cells, soluble versus nanomatrix-conjugated CD28 in presence of soluble CD3; settings: soluble CD3 alone, day 7
Procedure: (§1) FIG. 6: Comparison of soluble CD3 or CD28 antibodies to CD3 or CD28 antibodies conjugated to nanomatrices. Naive CD4 and CD8 T cells were isolated and stimulated in vitro in the presence of IL-2 using soluble CD3 (0-10000 ng/mL) w/o CD28 (A) or in the presence of soluble CD28 (200 ng/ml) (B) and compared to CD28 conjugated to nanomatrix (200 ng/ml) and analysed for early activation markers CD25/CD69 on day 5 or for expansion (C) on day 7. 2 donors were analysed in duplicates.
We also tested the effect of conjugation of CD28 antibodies to the nanomatrix. Since the effects of costimulation are best visualized under suboptimal CD3 stimulation, we titrated CD28 either soluble or conjugated to the nanomatrix in the presence of soluble CD3 to a culture of naïve T cells. […] In the presence of soluble CD28 however a 2-6 fold expansion was detectable but only at the highest tested dose of CD28 (10000 ng/ml).

[2] = test system: naive CD4 and CD8 T cells; test: Induction of early activation markers CD25/CD69, soluble versus nanomatrix-conjugated CD3
Procedure: as §1
IL-2 was added to all cultures. […] In contrast the CD3 coated nanomatrix (100 ng/ml CD3) induced CD25/CD69 expression in 40-70% of the cells.

soluble CD3: soluble anti-CD3 antibody (CD3 antibodies, clone OKT3)
fold expansion [1]: 57.61±17.75
expansion of naive T cells (naive T cells): did not induce any expansion
up-regulation of early activation markers CD25 and CD69 ([2]; 10-10000 ng/ml, without CD28, IL-2, day 5): did not induce any significant up-regulation
CD25/CD69 expression ([2]; highest tested doses 100-10000 ng/ml, with soluble CD28 200 ng/ml, IL-2, day 5): 20-40 % of the cells
